In US20260306639A1, “DEGRADER FOR DECOMPOSING CMET PROTEIN, AND PHARMACEUTICAL COMPOSITION COMPRISING SAME” (INNOCURE THERAPEUTICS, INC., priority 2022, published 2026):

Experiments:
Format in all cases: cell-based, human
c-MET [1] = assay: c-MET protein degradation (Simple Western), MKN-45 cells; details: MKN-45 gastric cancer cells, c-MET overexpressing; 24 hours
Method: (§1) In order to assess the resolution of the compound of the present invention for c-MET expressed in cells, cells were dispensed in a 12-well plate at a concentration of 2×10^5 cells/well, and then gastric cancer cell lines were treated with samples for 24 hours and lung cancer cell lines were treated for 48 hours. Cell lysates were collected using a scraper on ice, centrifuged at 4° C. 15,000 rpm for 30 min to obtain a protein-containing supernatant. Protein expression was then measured using the Simple Western Automated Western Blot System Abby instrument using 3 μg of protein for each sample. SDS and heat-induced denaturation proteins were separated by molecular weight, attached to capillary, reacted with anti-c-MET or anti-GAPDH antibodies, which are primary antibodies, and then reacted with HRP-conjugated secondary antibodies, and analyzed the protein expression signal with compass software. Protein expression was normalized based on the expression value of GAPDH, and protein development in each sample was measured as a percentage (%) based on 100% of samples treated with 0.1% DMSO carriers, and DC50 (concentration of a compound where 50% protein inhibition is achieved) was calculated from the change in protein expression amount due to compound treatment.

c-MET [2] = assay: c-MET protein degradation (Simple Western), EBC-1 cells; details: EBC-1 lung cancer cells, c-MET overexpressing; 48 hours
Method: as §1

c-MET [3] = assay: c-MET protein degradation (Simple Western), SNU-638 cells; details: SNU-638 gastric cancer cells, c-MET overexpressing; 24 hours
Method: as §1

SMILES	DC50 (c-MET [1]) [nM]	DC50 (c-MET [2]) [nM]	DC50 (c-MET [3]) [nM]
Cc1nn(C2CCC(=O)NC2=O)c(=O)c2ccc(N3CCN(C(=O)C4CN(CC(=O)N5CCC(COc6cnc(-c7cccc(Cn8nc(-c9cccc(C#N)c9)ccc8=O)c7)nc6)CC5)C4)CC3)cc12 (centres unmarked) [ICT-0001257]	< 100	100 to 1000	
N#Cc1cccc(-c2ccc(=O)n(Cc3cccc(-c4ncc(OCC5CCN(c6ccc(NC7CCC(=O)NC7=O)cc6F)CC5)cn4)c3)n2)c1 (centres unmarked) [ICT-0001383]		< 100	< 100
Cc1nn(C2CCC(=O)NC2=O)c(=O)c2ccc(N3CCN(C4CN(CCN5CCC(COc6cnc(-c7cccc(Cn8nc(-c9cccc(C#N)c9)ccc8=O)c7)nc6)CC5)C4)CC3)cc12 (centres unmarked) [ICT-0001325]			> 1000
Cc1nn(C2CCC(=O)NC2=O)c(=O)c2ccc(N3CCN(C(=O)C4CCN(CC(=O)N5CCC(COc6cnc(-c7cccc(Cn8nc(-c9cccc(C#N)c9)ccc8=O)c7)nc6)CC5)CC4)CC3)cc12 (centres unmarked) [ICT-0001218]	< 100		< 100
N#Cc1cccc(-c2ccc(=O)n(Cc3cccc(-c4ncc(OCC5CCN(CC(=O)N6CCC(CN7CCN(c8ccc(NC9CCC(=O)NC9=O)cc8F)CC7)CC6)CC5)cn4)c3)n2)c1 (centres unmarked) [ICT-0001447, 3-(1-{[3-(5-{[1-(2-{4-[(4-{4-[(2,6-dioxopiperidin-3-yl)amino]-2-fluorophenyl}piperazine-1-yl)methyl]piperidine-1-yl}-2-oxoethyl)piperidine-4-yl]methoxy}pyrimidine-2-yl)phenyl]methyl}-6-oxo-1,6-dihydropyridazine-3-yl)benzonitrile]		< 100	
Cc1nn(C2CCC(=O)NC2=O)c(=O)c2cc(N3CCN(CCN4CCC(COc5cnc(-c6cccc(Cn7nc(-c8cccc(C#N)c8)ccc7=O)c6)nc5)CC4)CC3)ccc12 (centres unmarked) [ICT-0001278, 3-(1-{[3-(5-{[1-(2-{4-[3-(2,6-dioxopiperidin-3-yl)-1-methyl-4-oxo-3,4-dihydropthalazine-6-yl]piperazine-1-yl}ethyl)piperidine-4-day]methoxy}pyrimidine-2-yl)phenyl]methyl}6-oxo-1,6-dihydropyridazine-3-yl)benzonitrile]	100 to 1000	> 1000	
N#Cc1cccc(-c2ccc(=O)n(Cc3cccc(-c4ncc(OCC5CCN(CC(=O)N6CCN(CC7CCN(c8ccc(NC9CCC(=O)NC9=O)cc8F)CC7)CC6)CC5)cn4)c3)n2)c1 (centres unmarked) [ICT-0001468, 3-(1-{[3-(5-{[1-(2-{4-[(1-{4-[(2,6-dioxopiperidin-3-yl)amino]-2-fluorophenyl}piperidine-4-yl)methyl]piperazine-1-yl}-2-oxoethyl)piperidine-4-yl]methoxy}pyrimidine-2-yl)phenyl]methyl}-6-oxo-1,6-dihydropyridazine-3-yl)benzonitrile]		< 100	
Cc1nn(C2CCC(=O)NC2=O)c(=O)c2cc(N3CCN(CC4CCN(CCN5CCC(COc6cnc(-c7cccc(Cn8nc(-c9cccc(C#N)c9)ccc8=O)c7)nc6)CC5)CC4)CC3)c(F)cc12 (centres unmarked) [ICT-0001326]			> 1000
N#Cc1cccc(-c2ccc(=O)n(Cc3cccc(-c4ncc(OCC5CCN(CCN6CCN(c7ccc8c(=O)n(C9CCC(=O)NC9=O)ncc8c7)CC6)CC5)cn4)c3)n2)c1 (centres unmarked) [ICT-0001276, 3-(1-{[3-(5-{[1-(2-{4-[2-(2,6-dioxopiperidin-3-yl)-1-oxo-1,2-dihydropetalazine-6-yl]piperazine-1-il}ethyl)piperidine-4-il]methoxy}pyrimidine-2-yl)phenyl]methyl}-6-oxo-1,6-dihydropyridazine-3-yl)benzonitrile]	< 100	> 1000	
N#Cc1cccc(-c2ccc(=O)n(Cc3cccc(-c4ncc(OCC5CCN(C(=O)CCCCCCNc6ccc7c(=O)n(C8CCC(=O)NC8=O)ncc7c6)CC5)cn4)c3)n2)c1 (centres unmarked) [ICT-0000985, 3-(1-{[3-(5-{[1-(7-{[2-(2,6-dioxopiperidin-3-yl)-1-oxo-1,2-dihydrophthalazine-6-yl]amino}heptanoyl)piperidine-4-il]methoxy}pyrimidine-2-yl)phenyl]methyl}-6-oxo-1,6-dihydropyridazine-3-yl)benzonitrile]	< 100		
Cn1cc(-c2cnc3c(nnn3C[C@@H]3CN(c4ncc(-c5ccc(CN6CCN(C(=O)COCCOCCOCCNc7ccc8c(=O)n(C9CCC(=O)NC9=O)ncc8c7)CC6)cc5)cn4)CCO3)n2)cn1 (stereo partly drawn) [ICT-0000938, 3-[6-(12-{4-[(4-{2-[(2S)-2-{[5-(1-methyl-1H-pyrazole-4-yl)-1H-[1,2,3]triazolo[4,5-b]pyrazine-1-yl]methyl}morpholine-4-yl]pyrimidine-5-yl}phenyl)methyl]piperazine-1-yl}-12-oxo-4,7,10-trioxa-1-azadodecane-1-yl)-1-oxo-1,2-dihydroptalazine-2-yl]piperidine-2,6-dione]	> 1000		
N#Cc1cccc(-c2ccc(=O)n(Cc3cccc(-c4ncc(OCC5CCN(C(=O)CCOCCOCCOCCOCCNc6cccc7cnn(C8CCC(=O)NC8=O)c(=O)c67)CC5)cn4)c3)n2)c1 (centres unmarked) [ICT-0000907]	100 to 1000		
N#Cc1cccc(-c2ccc(=O)n(Cc3cccc(-c4ncc(OCC5CCN(C(=O)CCCN6CCN(c7ccc8c(=O)n(C9CCC(=O)NC9=O)ncc8c7)CC6)CC5)cn4)c3)n2)c1 (centres unmarked) [ICT-0001200, 3-(1-{[3-(5-{[1-(4-{4-[2-(2,6-dioxopiperidine-3-yl)-1-oxo-1,2-dihydropthalazine-6-yl]piperazine-1-day}butanoyl)piperidine-4-il]methoxy}pyrimidine-2-yl)phenyl]methyl}6-oxo-1,6-dihydropyridazine-3-yl)benzonitrile]	< 100		
Cc1nn(C2CCC(=O)NC2=O)c(=O)c2ccc(NCCOCCOCCOCCOCCC(=O)N3CCC(COc4cnc(-c5cccc(Cn6nc(-c7cccc(C#N)c7)ccc6=O)c5)nc4)CC3)cc12 (centres unmarked) [ICT-0001091]	< 100		
Cc1nn(C2CCC(=O)NC2=O)c(=O)c2ccc(N3CCN(C4CCN(C(=O)CN5CCC(COc6cnc(-c7cccc(Cn8nc(-c9cccc(C#N)c9)ccc8=O)c7)nc6)CC5)CC4)CC3)cc12 (centres unmarked) [ICT-0001237]	< 100		
Cc1nn(C2CCC(=O)NC2=O)c(=O)c2ccc(N3CCN(C(=O)CN4CCC(COc5cnc(-c6cccc(Cn7nc(-c8cccc(C#N)c8)ccc7=O)c6)nc5)CC4)CC3)cc12 (centres unmarked) [ICT-0001177, 3-(1-{[3-(5-{[1-(2-{4-[2-(2,6-dioxopiperidin-3-yl)-4-methyl-1-oxo-1,2-dihydropthalazine-6-yl]piperazine-1-yl}-2-oxoethyl)piperidine-4-yl]methoxy}pyrimidine-2-yl)phenyl]methyl}-6-oxo-1,6-dihydropyridazine-3-yl)benzonitrile]	< 100		
Cc1nn(C2CCC(=O)NC2=O)c(=O)c2c(NCC(=O)N3CCC(CN4CCC(COc5cnc(-c6cccc(Cn7nc(-c8cccc(C#N)c8)ccc7=O)c6)nc5)CC4)CC3)cccc12 (centres unmarked) [ICT-0000980]	< 100		> 1000
Cc1nn(C2CCC(=O)NC2=O)c(=O)c2ccc(N3CCN(c4ccc(NCC(=O)N5CCC(COc6cnc(-c7cccc(Cn8nc(-c9cccc(C#N)c9)ccc8=O)c7)nc6)CC5)cc4)CC3)cc12 (centres unmarked) [ICT-0001240, 3-(1-(3-(5-((1-((4-(4-(2-(2,6-dioxopiperidin-3-yl)-4-methyl-1-oxo-1,2-dihydropthalazine-6-yl)piperazine-1-yl)phenyl)glycyl)piperidine-4-il)methoxy)pyrimidine-2-yl)benzyl)6-oxo-1,6-dihydropyridazine-3-yl)benzonitrile]	100 to 1000		
Cn1cc(-c2cnc3c(nnn3C[C@@H]3CN(c4ncc(-c5ccc(CN6CCN(C(=O)CCCNc7ccc8c(=O)n(C9CCC(=O)NC9=O)ncc8c7)CC6)cc5)cn4)CCO3)n2)cn1 (stereo partly drawn) [ICT-0000922, 3-{6-[(4-{4-[(4-{2-[(2S)-2-{[5-(1-methyl-1H-pyrazole-4-yl)-1H-[1,2,3]triazolo[4,5-b]pyrazine-1-yl]methyl}morpholine-4-il]pyrimidine-5-yl}phenyl)methyl]piperazine-1-yl}-4-oxobutyl)amino]-1-oxo-1,2-dihydroptalazine-2-yl}piperidine-2,6-dione]	< 100		
Cc1nn(C2CCC(=O)NC2=O)c(=O)c2ccc(N3CCN(C[C@@H]4CN(C(=O)CN5CCC(COc6cnc(-c7cccc(Cn8nc(-c9cccc(C#N)c9)ccc8=O)c7)nc6)CC5)CCO4)CC3)cc12 (some centres unmarked) [ICT-0001258]	< 100		
N#Cc1cccc(-c2ccc(=O)n(Cc3cccc(-c4ncc(OCC5CCN(C(=O)CCN6CCN(c7ccc8c(=O)n(C9CCC(=O)NC9=O)ncc8c7)CC6)CC5)cn4)c3)n2)c1 (centres unmarked) [ICT-0001199, 3-(1-{[3-(5-{[1-(3-{4-[2-(2,6-dioxopiperidin-3-yl)-1-oxo-1,2-dihydropthalazine-6-yl]piperazine-1-yl}propanoyl)piperidine-4-il]methoxy}pyrimidin-2-yl)phenyl]methyl}-6-oxo-1,6-dihydropyridazine-3-yl)benzonitrile]	< 100		
Cc1nn(C2CCC(=O)NC2=O)c(=O)c2cc(N3CCC(N4CCN(C(=O)CN5CCC(COc6cnc(-c7cccc(Cn8nc(-c9cccc(C#N)c9)ccc8=O)c7)nc6)CC5)CC4)CC3)ccc12 (centres unmarked) [ICT-0001233]	< 100		
Cc1nn(C2CCC(=O)NC2=O)c(=O)c2ccc(N3CCN(C(=O)CCCN4CCC(COc5cnc(-c6cccc(Cn7nc(-c8cccc(C#N)c8)ccc7=O)c6)nc5)CC4)CC3)cc12 (centres unmarked) [ICT-0001227, 3-(1-(3-(5-((1-(4-(4-(2-(2,6-dioxopiperidin-3-yl)-4-methyl-1-oxo-1,2-dihydropetalazine-6-yl)piperazine-1-yl)4-oxobutyl)piperidine-4-yl)methoxy)pyrimidine-2-yl)benzyl)6-oxo-1,6-dihydropyridazine-3-yl)benzonitrile]	100 to 1000		
